Experimental data published in paper PMC10098953, “Genome Mining Enabled by Biosynthetic Characterization Uncovers a Class of Benzoxazolinate‐Containing Natural Products in Diverse Bacteria” (Angewandte Chemie (International Ed. in English), 2022).

Tested on: T1, PbzB
T1 construct: recombinant, His-SUMO-tag, expressed in and purified from E. coli BL21(DE3); homodimer (apo crystal structure)
Experiment: steady-state kinetics of 2-hydroxymethylserine formation (LC-MS)
Type: biochemical, Pseudomonas chlororaphis subsp. piscium
Details: cofactors PLP and 5,10-methylenetetrahydrofolate (mTHF); potassium phosphate buffer pH 7.5 (stated for the glycine assay; same condition for serine)

Row | Km | Compound
1 | 603 ± 56.7 µM | N[C@H](CO)C(=O)O [D-serine]
2 | 69.52 ± 0.03 µM | N[C@@H](CO)C(=O)O [L-serine]
